Measurements: patent US7135466B2 (Kirin Beer Kabushiki Kaisha, priority 1999, dated 2006)
Where two headings read alike, the source gives them in different places.

What was measured:
[1] = molecular target: T1, PDGF-Ra (Homo sapiens, UniProt P16234); assay: Inhibitory activity against PDGF-Ra phosphorylation by PDGF-AA stimulation using G292; type: cell-based; conditions: for IC50: > means inhibition at indicated concentration not more than 50%, < and << not less than 50%, read-out: PDGF (E) IC50; for inhibition at 0.1 µM: G292, figure within parentheses in >100( ), at 100 nM, read-out: PDGF (E) inhibition (%) at 100 nM
T1 construct: host or cells: G-292 human osteosarcoma cells
Procedure, shortened: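 Cells seeded in low-serum medium are exposed to test compound for one hour, then PDGF-AA (50 ng/ml) triggers receptor phosphorylation for 5 min at 37 °C. Phospho-PDGF-Ra in solubilized cells is quantified by anti-phosphotyrosine capture ELISA at 450 nm.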

[2] = molecular target: T2, c-kit (Homo sapiens, UniProt P10721); assay: Inhibitory activity against c-kit autophosphorylation (MO7e cells, h-SCF); type: cell-based; conditions: for IC50: MO7e cells, read-out: c-kit IC50; for inhibition at 1 µM: Mo7e, figure within parentheses in −( ) or >1000( ), at 1000 nM
T2 construct: MO7e (human megakaryocytic leukemia cell line) which had been arrested for 20 hr; endogenous in cells; host or cells: MO7e human megakaryocytic leukemia cell line
Procedure, shortened: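 Phospho-c-kit ELISA: plate-bound PY-20 anti-phosphotyrosine captures lysate, anti-c-kit plus peroxidase-labelled secondary antibody detect, read at 450 nm. Lysates come from 20 hr-arrested MO7e cells given compound for 1 hr before a 5 min 50 ng/ml h-SCF stimulus.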

T1 sequence (P16234 24-1089): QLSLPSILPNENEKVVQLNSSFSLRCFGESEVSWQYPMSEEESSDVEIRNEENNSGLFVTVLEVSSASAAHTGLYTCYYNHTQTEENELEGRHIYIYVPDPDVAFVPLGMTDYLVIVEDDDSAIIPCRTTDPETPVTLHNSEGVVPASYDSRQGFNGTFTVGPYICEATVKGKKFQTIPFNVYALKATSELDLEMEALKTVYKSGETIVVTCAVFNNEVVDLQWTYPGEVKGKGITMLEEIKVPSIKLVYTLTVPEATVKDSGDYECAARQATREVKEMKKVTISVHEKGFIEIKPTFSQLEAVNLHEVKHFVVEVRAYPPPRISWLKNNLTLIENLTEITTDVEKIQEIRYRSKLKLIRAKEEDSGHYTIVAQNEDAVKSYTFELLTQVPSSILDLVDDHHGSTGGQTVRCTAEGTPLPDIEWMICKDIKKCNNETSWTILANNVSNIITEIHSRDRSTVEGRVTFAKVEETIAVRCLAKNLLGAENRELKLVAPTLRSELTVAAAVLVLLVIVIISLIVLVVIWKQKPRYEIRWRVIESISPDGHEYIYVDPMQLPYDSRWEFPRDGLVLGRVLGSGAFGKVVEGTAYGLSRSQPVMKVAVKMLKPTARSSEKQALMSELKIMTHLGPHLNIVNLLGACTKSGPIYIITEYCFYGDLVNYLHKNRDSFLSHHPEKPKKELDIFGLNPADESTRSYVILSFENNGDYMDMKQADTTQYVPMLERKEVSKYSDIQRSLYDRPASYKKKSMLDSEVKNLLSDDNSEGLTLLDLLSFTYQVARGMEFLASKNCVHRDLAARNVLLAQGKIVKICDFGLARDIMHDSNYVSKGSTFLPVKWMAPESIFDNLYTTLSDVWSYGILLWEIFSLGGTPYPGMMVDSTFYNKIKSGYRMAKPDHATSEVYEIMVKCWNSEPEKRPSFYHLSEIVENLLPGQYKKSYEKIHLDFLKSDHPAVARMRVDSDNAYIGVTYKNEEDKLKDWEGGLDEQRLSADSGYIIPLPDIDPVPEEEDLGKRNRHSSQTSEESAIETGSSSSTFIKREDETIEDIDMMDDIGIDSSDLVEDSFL
T2 sequence (P10721 26-976): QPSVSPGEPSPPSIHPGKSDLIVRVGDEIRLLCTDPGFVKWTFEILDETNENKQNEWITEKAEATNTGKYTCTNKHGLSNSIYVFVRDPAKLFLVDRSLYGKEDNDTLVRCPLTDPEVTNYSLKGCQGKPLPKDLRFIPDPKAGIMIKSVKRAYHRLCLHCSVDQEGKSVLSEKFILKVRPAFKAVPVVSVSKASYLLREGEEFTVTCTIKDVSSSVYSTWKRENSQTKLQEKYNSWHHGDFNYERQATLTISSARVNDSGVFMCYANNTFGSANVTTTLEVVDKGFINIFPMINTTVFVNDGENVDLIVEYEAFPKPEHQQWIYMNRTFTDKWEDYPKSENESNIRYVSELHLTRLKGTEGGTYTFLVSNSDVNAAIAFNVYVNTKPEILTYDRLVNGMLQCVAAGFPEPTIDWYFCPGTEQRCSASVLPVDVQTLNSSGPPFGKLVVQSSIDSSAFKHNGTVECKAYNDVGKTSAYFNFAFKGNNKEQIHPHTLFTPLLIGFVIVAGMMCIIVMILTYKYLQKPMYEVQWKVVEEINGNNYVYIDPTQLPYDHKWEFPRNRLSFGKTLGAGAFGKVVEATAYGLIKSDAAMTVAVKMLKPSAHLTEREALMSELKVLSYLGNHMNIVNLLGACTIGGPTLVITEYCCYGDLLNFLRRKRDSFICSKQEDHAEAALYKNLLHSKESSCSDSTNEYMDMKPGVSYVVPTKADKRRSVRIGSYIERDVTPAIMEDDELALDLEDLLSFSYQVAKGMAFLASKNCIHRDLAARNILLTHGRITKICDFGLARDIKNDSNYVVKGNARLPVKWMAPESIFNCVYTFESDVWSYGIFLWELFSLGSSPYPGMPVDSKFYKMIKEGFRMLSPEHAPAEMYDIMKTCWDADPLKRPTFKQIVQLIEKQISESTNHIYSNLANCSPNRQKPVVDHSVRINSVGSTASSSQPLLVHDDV

Structure (SMILES) | IC50 [1] [nM] | IC50 ([1]; Pharmacological Test Example 1) [nM] | IC50 ([2]; h-SCF 50 ng/ml) [nM] | also measured
COc1cc2nccc(Oc3ccc(NC(=O)NCCN4CCCC4)cc3)c2cc1OC [Example 618, N-{4-[(6,7-Dimethoxy-4-quinolyl)oxy]phenyl}-N′-(2-tetrahydro-1H-1-pyrrolylethyl)urea] | < 10 | – | – | IC50 ([2]; 50 ng/ml h-SCF): 948 nM
COc1cc2nccc(Oc3ccc(NC(=O)OCCOc4ccccc4F)cc3)c2cc1OC [Example 203, 2-(2-Fluorophenoxy)ethyl N-{4-[(6,7-dimethoxy-4-quinolyl)oxy]phenyl}carbamate] | – | 25 | 169 | –
COc1cc2ncnc(Oc3ccc(NC(=O)NCCN4CCOCC4)cc3)c2cc1OC [Example 629, N-{4-[(6,7-Dimethoxy-4-quinazolinyl)oxy]phenyl}-N′-(2-morpholinoethyl)urea] | < 10 | – | – | IC50 ([2]; 50 ng/ml h-SCF): 481 nM
COc1cc2ncnc(Oc3ccc(NC(=O)OCCCSc4cc(C)ccc4C)cc3)c2cc1OC [Example 172, 3-[(2,5-Dimethylphenyl)sulfanyl]-propyl N-{4-[(6,7-dimethoxy-4-quinazolinyl)oxy]phenyl}carbamate] | – | 17 | 74 | –
COc1cc2nccc(Oc3ccc(NC(=S)NC(=O)c4ccc(C)s4)cc3F)c2cc1OC [Example 1040, N-{4-[(6,7-Dimethoxy-4-quinolyl)oxy]-3-fluorophenyl}-N′-[(5-methyl-2-thienyl)carbonyl]thiourea] | < 10 | – | – | IC50 ([2]; h-SCF stimulation): 414 nM
COc1cc2ncnc(Oc3ccc(NC(=O)OC4CCOCC4)cc3)c2cc1OC [Example 473, Tetrahydro-2H-4-pyranyl N-{4-[(6,7-dimethoxy-4-quinazolinyl)oxy]phenyl}carbamate] | > 100 | – | – | inhibition at 0.1 µM [1]: 30%; IC50 ([2]; 50 ng/ml h-SCF): 259 nM
COc1cc2ncnc(Oc3ccc(NC(=O)OC4CCCC4)c(C)c3C)c2cc1OC [Example 393, Cyclopentyl N-{4-[(6,7-dimethoxy-4-quinazolinyl)oxy]-2,3-dimethylphenyl}carbamate] | – | 82 | 90 | –
COc1cc2nccc(Oc3ccc(NC(=S)NC(=O)COc4ccccc4C)cc3)c2cc1OC [Example 739, N-{4-[(6,7-Dimethoxy-4-quinolyl)oxy]phenyl}-N′-[2-(2-methylphenoxy)acetyl]thiourea] | < 10 | – | – | IC50 ([2]; 50 ng/ml h-SCF): 234 nM
COc1cc2nccc(Oc3ccc(NC(=S)NCc4ccccc4)cc3Cl)c2cc1OC [Example 706, N-Benzyl-N′-{3-chloro-4-[(6,7-dimethoxy-4-quinolyl)oxy]phenyl}thiourea] | < 10 | – | – | IC50 ([2]; 50 ng/ml h-SCF): 227 nM
COc1cc2nccc(Oc3ccc(NC(=O)NC4CCN(Cc5ccccc5)CC4)cc3F)c2cc1OC [Example 639, N-(1-Benzyl-4-piperidyl)-N′-{4-[(6,7-dimethoxy-4-quinolyl)oxy]-3-fluorophenyl}urea] | > 100 | – | – | inhibition at 0.1 µM [1]: 29%; inhibition at 1 µM [2]: 12%
COc1cc2ncnc(Oc3ccc(NC(=O)OC(C)c4cccc(Br)c4)cc3)c2cc1OC (stereo not shown) [Example 120, 1-(3-Bromophenyl)ethyl N-{4-[(6,7-dimethoxy-4-quinazolinyl)oxy]phenyl}carbamate] | – | 13 | 505 | –
COc1cc2nccc(Oc3ccc(NC(=O)OCCCSc4ccc(C(C)(C)C)cc4)c(C)c3C)c2cc1OC [Example 73, 3-{[4-(Tert-butyl)phenyl]sulfanyl}-propyl N-{4-[(6,7-dimethoxy-4-quinolyl)oxy]-2,3-dimethylphenyl}carbamate] | – | 28 | 235 | –
COc1cc2ncnc(Oc3ccc(NC(=O)OC(C)c4ccccc4F)cc3)c2cc1OC (stereo not shown) [Example 125] | – | < 10 | 671 | –
COc1cc2ncnc(Oc3ccc(OCC(=O)N4CCc5ccccc5C4)cc3)c2cc1OC [Example 802, 2-{4-[(6,7-Dimethoxy-4-quinazolinyl)oxy]phenoxy}-1-(1,2,3,4-tetrahydro-2-isoquinolyl)-1-ethanone] | < 10 | – | – | inhibition at 1 µM [2]: 42%
COc1cc2ncnc(Oc3ccc(NC(=O)NC4CCN(Cc5ccc(C(C)(C)C)cc5)C4)c([N+](=O)[O-])c3)c2cc1OC (stereo not shown) [Example 584, N-{1-[4-(Tert-butyl)benzyl]tetrahydro-1H-3-pyrrolyl}-N′-{4-[(6,7-dimethoxy-4-quinazolinyl)oxy]-2-nitrophenyl}urea] | > 100 | – | – | inhibition at 0.1 µM [1]: 13%; inhibition at 1 µM [2]: 13%
COc1cc2nccc(Oc3ccc(NC(=O)Sc4ccc(Cl)cc4C)c(C)c3C)c2cc1OC [Example 177, 4-Chloro-2-methylphenyl{4-[(6,7-dimethoxy-4-quinolyl)oxy]-2,3-dimethylanilino}methanethioate] | – | 19 | < 30 | –
COc1cc2ncnc(Oc3ccc(NC(=O)N4CCN(c5ccccc5)CC4)cc3)c2cc1OC [Example 691, N1-{4-[(6,7-Dimethoxy-4-quinazolinyl)oxy]phenyl}-4-phenyl-1-piperazinecarboxamide] | > 100 | – | – | inhibition at 0.1 µM [1]: 10%; inhibition at 1 µM [2]: 18%
CCCC(CCN(CC)CC)OC(=O)Nc1cc(C)c(Oc2ccnc3cc(OC)c(OC)cc23)cc1C (stereo not shown) [Example 442, 1-[2-(Diethylamino)ethyl]butyl N-{4-[(6,7-dimethoxy-4-quinolyl)oxy]-2,5-dimethylphenyl}carbamate] | > 100 | – | – | inhibition at 0.1 µM [1]: 32%; inhibition at 1 µM [2]: 28%
COc1cc2ncnc(Oc3ccc(NC(=O)OC(C)c4ccc(F)cc4)cc3)c2cc1OC (stereo not shown) [Example 105, 1-(4-Fluorophenyl)ethyl N-{4-[(6,7-dimethoxy-4-quinazolinyl)oxy]phenyl}carbamate] | – | < 10 | 252 | –
COc1cc2nccc(Oc3ccc(NC(=O)OC(C)c4cccc(N(C)C)c4)cc3)c2cc1OC (stereo not shown) [Example 199, 1-[3-(Dimethylamino)phenyl]ethyl N-{4-[(6,7-dimethoxy-4-quinolyl)oxy]phenyl}carbamate] | – | 35 | 807 | –
COc1cc2ncnc(Oc3cc(C)c(NC(=O)OC4CCCCC4)cc3C)c2cc1OC [Example 390, Cyclohexyl N-{4-[(6,7-dimethoxy-4-quinazolinyl)oxy]-2,5-dimethylphenyl}carbamate] | – | 33 | 400 | –
COc1cc2nccc(Oc3ccc(NC(=S)NC(=O)c4ccc(CCl)cc4)cc3F)c2cc1OC [Example 1000, N-[4-(Chloromethyl)benzoyl]-N′-{4-[(6,7-dimethoxy-4-quinolyl)oxy]-3-fluorophenyl}thiourea] | 3 | – | – | IC50 ([2]; h-SCF stimulation): 771 nM
COc1cc2ncnc(Oc3ccc(NC(=O)NC4CCN(Cc5ccccc5)CC4)c([N+](=O)[O-])c3)c2cc1OC [Example 640, N-(1-Benzyl-4-piperidyl)-N′-{4-[(6,7-dimethoxy-4-quinazolinyl)oxy]-2-nitrophenyl}urea] | 35 | – | – | IC50 ([2]; 50 ng/ml h-SCF): 254 nM
COc1cc2ncnc(Oc3ccc(NC(=O)NCCN(C)C)cc3)c2cc1OC [Example 627, N-{4-[(6,7-Dimethoxy-4-quinazolinyl)oxy]phenyl}-N′-[2-(dimethylamino)ethyl]urea] | 65 | – | – | IC50 ([2]; 50 ng/ml h-SCF): 774 nM
CCCC(CC)OC(=O)Nc1cc(C)c(Oc2ccnc3cc(OC)c(OC)cc23)cc1C (stereo not shown) [Example 276, 1-Ethylbutyl N-{4-[(6,7-dimethoxy-4-quinolyl)oxy]-2,5-dimethylphenyl}carbamate] | – | 16 | 413 | –
